Reference: patent publication US20230293526A1, “METHOD FOR TREATING CANCER WITH A REVERSE TRANSCRIPTASE INHIBITOR” (PrimeFour Therapeutics, Inc., priority 2020, published 2023)

Legend:
[1] = system: human LINE-1; assay: Human LINE-1 (L1) retrotransposition dual-luciferase reporter assay in HeLa cells; assay type: cell-based; conditions: Homo sapiens, HeLa, 72 h, read-out: Human LINE-1 IC50 (Human L1 activity inhibition)
Description: Representative compounds were tested for inhibition of retrotransposition activity of human LINE-1 (L1) retrotransposition reporter assay in HeLa cells according to the following procedure.
Human Cervical Adenocarcinoma Cells (HeLa) were cultured in Dulbecco's Modified Eagle's Medium (DMEM) containing 4500 mg/L glucose, L-glutamine, sodium pyruvate and sodium bicarbonate, supplemented with 10% of heat inactivated fetal bovine serum (FBS). Cells were grown at 37° C. in an atmosphere of 5% CO2. The dual luciferase-encoding plasmid pYX017 was provided by Prof Wenfeng An (Xie, et al., 2011, Nucleic Acids Res).
The reporter assay was performed in 96-well white, optical bottom plates (Thermo Fisher, 165306). 24 hours prior to transfection, HeLa cells were seeded in a density of 2,500 cells per well, in 50 μL of DMEM, 10% FBS media volume. Cells were incubated at 37° C. in an atmosphere of 5% CO2. Seeding was optimized to achieve approximately 30% cell confluency on the day of transfection. A transfection mix was prepared by combining transfection reagent FuGENE® HD (Promega, E2311) and plasmid DNA (100 ng per well) in a 3:1 ratio, in OpiMEM media (Thermo Fisher, 31985062). Next, 5 μL of the transfection mix was combined with 20 μL of DMEM, 10% FBS media, and 25 μL of this mix was added into each well of an assay plate. In each assay plate one column remained untransfected to serve as a blank luminescence signal.
Serial dilution of test compounds was performed in DMSO and transferred to medium. Next, 25 μL of media-diluted compounds series were transferred to an assay plate containing cells and transfection media. The final concentration of DMSO in treated wells was 0.2%. Serial dilutions of compounds were added to an assay plate immediately after transfection. Compounds were tested in triplicates. The assay plate was then incubated with transfection reagent and compounds at 37° C. in an atmosphere of 5% CO2 for 72 hours.
Luciferase reporter activity was quantified with the Dual-Luciferase® Reporter Assay System (Promega) following the manufacturer's manual, with a passive lysis buffer volume increased to 30 μL and lysis incubation time increased to 20 min at room temperature with gentle shaking, to ensure complete cell lysis. Luminescence was measured using a SpectraMax i3×Multi-Mode Microplate Reader, with integration times of 100 ms and 10 ms applied to measure FLuc and RLuc signals, respectively. Relative LNE-1 activity was calculated as Firefly signal/Renilla signal*10,000. In order to determine IC50 values for each compound, dose response data were fit to a logistic using non-linear regression.

[2] = system: cancer cell lines; assay: Cancer cell proliferation activity of representative nucleosides, CellTiterGlo 72 h (Example 7, Tables 8 and 9); assay type: cell-based
Summary of the method: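 Cancer cell lines seeded and incubated at 37° C overnight, then exposed to nucleosides (final DMSO 0.1%) for 72 h at 37° C with 5% or 10% CO2. Viability read by CellTiterGlo luminescence and normalized to 0.1% DMSO (100%) and 10 μM staurosporine (0%) controls.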

IC50 [1]: 0.092 µM | IC50 ([2]; 72 h, 5637, 72 h (Table 9)): > 50 µM | IC50 ([2]; 72 h, CLS439, 72 h (Table 9)): > 50 µM | IC50 ([2]; 72 h, HS729, 72 h (Table 9)): > 50 µM | IC50 ([2]; 72 h, J82, 72 h (Table 9)): > 50 µM | IC50 ([2]; 72 h, JAR, 72 h (Table 9)): > 50 µM | IC50 ([2]; 72 h, MT3, 72 h (Table 9)): > 50 µM | IC50 ([2]; 72 h, PC3, 72 h (Table 9)): > 50 µM | IC50 ([2]; 72 h, RD, 72 h (Table 9)): > 50 µM | IC50 ([2]; 72 h, T24, 72 h (Table 9)): > 50 µM | IC50 ([2]; Homo sapiens, 22Rv1, 72 h, 22RV1, 72 h (Table 9)): > 50 µM | IC50 ([2]; Homo sapiens, 786-0, 72 h, 786O, 72 h (Table 9)): > 50 µM | IC50 ([2]; Homo sapiens, A204, 72 h, A204, 72 h (Table 9)): 0.41 µM | IC50 ([2]; Homo sapiens, A549, 72 h, A549, 72 h (Table 9)): > 50 µM | IC50 ([2]; Homo sapiens, A673, 72 h, A673, 72 h (Table 9)): > 50 µM | IC50 ([2]; Homo sapiens, A2780, 72 h, A2780, 72 h (Table 9)): > 50 µM | IC50 ([2]; Homo sapiens, A-375, 72 h, A375, 72 h (Table 9)): > 50 µM | IC50 ([2]; Homo sapiens, A-431, 72 h, A431, 72 h (Table 9)): 17.1 µM | IC50 ([2]; Homo sapiens, ACHN, 72 h, 72 h (Table 9)): 1.87 µM | IC50 ([2]; Homo sapiens, ASPC1, 72 h, ASPC1, 72 h (Table 9)): 2.46 µM | IC50 ([2]; Homo sapiens, BT-20, 72 h, BT20, 72 h (Table 9)): > 50 µM | IC50 ([2]; Homo sapiens, BXPC-3, 72 h, BXPC3, 72 h (Table 9)): > 50 µM | IC50 ([2]; Homo sapiens, C-33-A, 72 h, C33A, 72 h (Table 9)): > 50 µM | IC50 ([2]; Homo sapiens, CAKI-1, 72 h, CAKI1, 72 h (Table 9)): 2.95 µM | IC50 ([2]; Homo sapiens, COLO 205, 72 h, COLO205, 72 h (Table 9)): > 50 µM | IC50 ([2]; Homo sapiens, COLO-678, 72 h, COLO678, 72 h (Table 9)): > 50 µM | IC50 ([2]; Homo sapiens, Ca-Ski, 72 h, CASKI, 72 h (Table 9)): > 50 µM | IC50 ([2]; Homo sapiens, Caco-2, 72 h, CACO2, 72 h (Table 9)): > 50 µM | IC50 ([2]; Homo sapiens, Calu-6, 72 h, CALU6, 72 h (Table 9)): > 50 µM | IC50 ([2]; Homo sapiens, DLD-1, 72 h, DLD1, 72 h (Table 9)): > 50 µM | IC50 ([2]; Homo sapiens, DU-145, 72 h, DU145, 72 h (Table 9)): 1.41 µM | IC50 ([2]; Homo sapiens, EFO-21, 72 h, EFO21, 72 h (Table 9)): > 50 µM | IC50 ([2]; Homo sapiens, EJ-28, 72 h, EJ28, 72 h (Table 9)): > 50 µM | IC50 ([2]; Homo sapiens, Granta-519, 72 h, GRANTA-519, 72 h (Table 9)): 1.35 µM | IC50 ([2]; Homo sapiens, HCT-15, 72 h, HCT15, 72 h (Table 9)): > 50 µM | IC50 ([2]; Homo sapiens, HCT-116, 72 h, HCT116, 72 h (Table 9)): > 50 µM | IC50 ([2]; Homo sapiens, HEK293, 72 h, HEK293, 72 h (Table 9)): > 50 µM | IC50 ([2]; Homo sapiens, HL-60, 72 h, HL-60, 72 h (Table 9)): 3.36 µM | IC50 ([2]; Homo sapiens, HT-29, 72 h, HT29, 72 h (Table 9)): > 50 µM | IC50 ([2]; Homo sapiens, HT-1080, 72 h, HT1080, 72 h (Table 9)): > 50 µM | IC50 ([2]; Homo sapiens, HeLa, 72 h, 72 h (Table 9)): > 50 µM | IC50 ([2]; Homo sapiens, HepG2, 72 h, HEPG2, 72 h (Table 9)): 6.29 µM | IC50 ([2]; Homo sapiens, Hs-578T, 72 h, HS578T, 72 h (Table 9)): > 50 µM | IC50 ([2]; Homo sapiens, IGROV-1, 72 h, IGROV1, 72 h (Table 9)): > 50 µM | IC50 ([2]; Homo sapiens, IMR-90, 72 h, IMR90, 72 h (Table 9)): > 50 µM | IC50 ([2]; Homo sapiens, JEG-3, 72 h, JEG3, 72 h (Table 9)): > 50 µM | IC50 ([2]; Homo sapiens, JIMT-1, 72 h, JIMT1, 72 h (Table 9)): 8.56 µM | IC50 ([2]; Homo sapiens, K562, 72 h, K-562, 72 h (Table 9)): > 50 µM | IC50 ([2]; Homo sapiens, Kasumi 1, 72 h, KASUMI-1, 72 h (Table 9)): 18.7 µM | IC50 ([2]; Homo sapiens, L-363, 72 h, L-363, 72 h (Table 9)): > 50 µM | IC50 ([2]; Homo sapiens, LoVo, 72 h, 72 h (Table 9)): > 50 µM | IC50 ([2]; Homo sapiens, MCF7, 72 h, MCF7, 72 h (Table 9)): > 50 µM | IC50 ([2]; Homo sapiens, MDA-MB-231, 72 h, MDAMB231, 72 h (Table 9)): 5.38 µM | IC50 ([2]; Homo sapiens, MDA-MB-435, 72 h, MDAMB435, 72 h (Table 9)): > 50 µM | IC50 ([2]; Homo sapiens, MDA-MB-436, 72 h, MDAMB436, 72 h (Table 9)): > 50 µM | IC50 ([2]; Homo sapiens, MDA-MB-468, 72 h, MDAMB468, 72 h (Table 9)): > 50 µM | IC50 ([2]; Homo sapiens, MG-63, 72 h, MG63, 72 h (Table 9)): > 50 µM | IC50 ([2]; Homo sapiens, MHH-ES-1, 72 h, MHHES1, 72 h (Table 9)): 1.96 µM | IC50 ([2]; Homo sapiens, MIA PaCa-2, 72 h, MIAPACA2, 72 h (Table 9)): > 50 µM | IC50 ([2]; Homo sapiens, MINO, 72 h, 72 h (Table 9)): 4.93 µM | IC50 ([2]; Homo sapiens, MV4-11, 72 h, MV4-11, 72 h (Table 9)): > 50 µM | IC50 ([2]; Homo sapiens, NCI-H23, 72 h, NCI-H23, 72 h (Table 9)): > 50 µM | IC50 ([2]; Homo sapiens, NCI-H82, 72 h, NCIH82, 72 h (Table 9)): > 50 µM | IC50 ([2]; Homo sapiens, NCI-H292, 72 h, NCIH292, 72 h (Table 9)): 4.68 µM | IC50 ([2]; Homo sapiens, NCI-H460, 72 h, NCIH460, 72 h (Table 9)): > 50 µM | IC50 ([2]; Homo sapiens, OVCAR-3, 72 h, OVCAR3, 72 h (Table 9)): > 50 µM | IC50 ([2]; Homo sapiens, OVCAR-4, 72 h, OVCAR4, 72 h (Table 9)): > 50 µM | IC50 ([2]; Homo sapiens, PANC-1, 72 h, PANC1, 72 h (Table 9)): > 50 µM | IC50 ([2]; Homo sapiens, PLC-PRF-5, 72 h, PLCPRF5, 72 h (Table 9)): > 50 µM | IC50 ([2]; Homo sapiens, Panc1005, 72 h, PANC1005, 72 h (Table 9)): > 50 µM | IC50 ([2]; Homo sapiens, Ramos, 72 h, 72 h (Table 9)): 1.96 µM | IC50 ([2]; Homo sapiens, SAOS-2, 72 h, SAOS2, 72 h (Table 9)): > 50 µM | IC50 ([2]; Homo sapiens, SF-268, 72 h, SF268, 72 h (Table 9)): > 50 µM | IC50 ([2]; Homo sapiens, SF-295, 72 h, SF295, 72 h (Table 9)): > 50 µM | IC50 ([2]; Homo sapiens, SK-BR-3, 72 h, SKBR3, 72 h (Table 9)): 3.47 µM | IC50 ([2]; Homo sapiens, SK-HEP1, 72 h, SKHEP1, 72 h (Table 9)): > 50 µM | IC50 ([2]; Homo sapiens, SK-LMS-1, 72 h, SKLMS1, 72 h (Table 9)): > 50 µM | IC50 ([2]; Homo sapiens, SK-MEL-5, 72 h, SKMEL5, 72 h (Table 9)): > 50 µM | IC50 ([2]; Homo sapiens, SK-MEL-28, 72 h, SKMEL28, 72 h (Table 9)): > 50 µM | IC50 ([2]; Homo sapiens, SK-N-AS, 72 h, SKNAS, 72 h (Table 9)): > 50 µM | IC50 ([2]; Homo sapiens, SK-N-SH, 72 h, SKNSH, 72 h (Table 9)): 6.99 µM | IC50 ([2]; Homo sapiens, SK-OV-3, 72 h, SKOV3, 72 h (Table 9)): > 50 µM | IC50 ([2]; Homo sapiens, SNB-75, 72 h, SNB75, 72 h (Table 9)): > 50 µM | IC50 ([2]; Homo sapiens, SU-DHL10, 72 h, SU-DHL-10, 72 h (Table 9)): > 50 µM | IC50 ([2]; Homo sapiens, SU-DHL-6, 72 h, SU-DHL-6, 72 h (Table 9)): 4.2 µM | IC50 ([2]; Homo sapiens, SW-620, 72 h, SW620, 72 h (Table 9)): > 50 µM | IC50 ([2]; Homo sapiens, TE-671, 72 h, TE671, 72 h (Table 9)): > 50 µM | IC50 ([2]; Homo sapiens, THP-1, 72 h, THP-1, 72 h (Table 9)): 2.04 µM | IC50 ([2]; Homo sapiens, U2OS, 72 h, 72 h (Table 9)): > 50 µM | IC50 ([2]; Homo sapiens, U-87 MG, 72 h, U87MG, 72 h (Table 9)): 18.5 µM | IC50 ([2]; Homo sapiens, UMUC3, 72 h, UMUC3, 72 h (Table 9)): > 50 µM | IC50 ([2]; Homo sapiens, UO-31, 72 h, UO31, 72 h (Table 9)): 11.2 µM | IC50 ([2]; Homo sapiens, WSU-NHL, 72 h, 72 h (Table 9)): 2.46 µM | IC50 ([2]; NCI-H358M, 72 h, NCIH358M, 72 h (Table 9)): 4.54 µM | IC50 ([2]; PBMC, 72 h, 72 h (Table 9)): > 50 µM | IC50 ([2]; RD-ES, 72 h, RDES, 72 h (Table 9)): > 50 µM
SMILES: Nc1nc(=O)n([C@@H]2C=C[C@H](CO)O2)cc1F [Elvucitabine, reference compound]
